The record followed here is ChEMBL document CHEMBL4507268 (2021).

In experiment [1] the target is BDNF/NT-3 growth factors receptor (Homo sapiens) (UniProt Q16620). The conditions noted are these: Compound concentration 1000.0 nM.
Experiment [2] has as its target T1, Serine/threonine-protein kinase Chk1 (Homo sapiens) (UniProt O14757).
T1 sequence (whole entry): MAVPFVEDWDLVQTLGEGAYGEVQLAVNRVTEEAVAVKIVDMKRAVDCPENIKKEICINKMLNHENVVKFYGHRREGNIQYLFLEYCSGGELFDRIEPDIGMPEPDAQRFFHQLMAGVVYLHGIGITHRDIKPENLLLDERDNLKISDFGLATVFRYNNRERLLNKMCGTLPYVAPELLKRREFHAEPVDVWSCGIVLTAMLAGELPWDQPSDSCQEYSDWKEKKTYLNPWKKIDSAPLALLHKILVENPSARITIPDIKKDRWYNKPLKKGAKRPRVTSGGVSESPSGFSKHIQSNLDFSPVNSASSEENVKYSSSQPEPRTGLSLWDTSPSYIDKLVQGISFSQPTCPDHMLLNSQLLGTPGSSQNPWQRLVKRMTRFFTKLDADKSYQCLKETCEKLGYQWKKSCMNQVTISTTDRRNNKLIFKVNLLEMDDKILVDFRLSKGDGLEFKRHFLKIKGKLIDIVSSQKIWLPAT
The following applies: Compound concentration 1000.0 nM.

In experiment [3] the target is T2, G protein-coupled receptor kinase 3 (Homo sapiens) (UniProt P35626).
T2 sequence (whole entry): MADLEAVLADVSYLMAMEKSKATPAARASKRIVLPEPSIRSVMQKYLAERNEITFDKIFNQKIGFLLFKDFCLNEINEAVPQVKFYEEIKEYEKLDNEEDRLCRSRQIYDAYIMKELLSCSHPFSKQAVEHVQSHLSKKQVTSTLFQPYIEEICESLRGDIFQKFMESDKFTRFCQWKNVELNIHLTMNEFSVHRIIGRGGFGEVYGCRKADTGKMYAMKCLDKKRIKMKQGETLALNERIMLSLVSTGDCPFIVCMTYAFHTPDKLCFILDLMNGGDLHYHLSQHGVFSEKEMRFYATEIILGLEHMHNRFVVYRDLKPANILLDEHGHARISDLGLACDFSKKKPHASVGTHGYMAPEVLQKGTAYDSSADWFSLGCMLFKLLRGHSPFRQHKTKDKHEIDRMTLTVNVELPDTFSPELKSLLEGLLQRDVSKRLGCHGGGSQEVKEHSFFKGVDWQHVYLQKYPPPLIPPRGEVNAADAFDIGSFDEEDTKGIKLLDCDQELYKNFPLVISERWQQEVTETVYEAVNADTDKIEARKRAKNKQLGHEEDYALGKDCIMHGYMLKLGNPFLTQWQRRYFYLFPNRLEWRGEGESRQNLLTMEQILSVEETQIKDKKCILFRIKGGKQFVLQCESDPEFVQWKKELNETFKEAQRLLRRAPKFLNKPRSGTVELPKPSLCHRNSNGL
The conditions noted are these: Compound concentration 1000.0 nM.

In experiment [4] the target is Calcium/calmodulin-dependent protein kinase type II subunit alpha (Homo sapiens) (UniProt Q9UQM7). The conditions noted are these: Compound concentration 1000.0 nM.
Chain of Calcium/calmodulin-dependent protein kinase type II subunit alpha (Homo sapiens) (Q9UQM7 whole entry): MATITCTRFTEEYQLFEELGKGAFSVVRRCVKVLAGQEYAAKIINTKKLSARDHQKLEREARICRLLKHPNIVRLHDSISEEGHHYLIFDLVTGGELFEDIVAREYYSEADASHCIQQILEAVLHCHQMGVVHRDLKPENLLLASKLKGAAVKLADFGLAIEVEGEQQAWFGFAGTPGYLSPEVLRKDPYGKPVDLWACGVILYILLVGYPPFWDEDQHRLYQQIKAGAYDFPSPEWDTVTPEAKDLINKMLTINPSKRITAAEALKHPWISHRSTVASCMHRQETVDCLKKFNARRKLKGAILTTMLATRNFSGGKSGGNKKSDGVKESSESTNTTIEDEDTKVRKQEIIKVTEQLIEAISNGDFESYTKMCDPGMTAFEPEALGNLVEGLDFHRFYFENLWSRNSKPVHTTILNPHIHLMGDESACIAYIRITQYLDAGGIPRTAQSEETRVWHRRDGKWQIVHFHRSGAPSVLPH
Experiment [5] concerns the target Leukocyte tyrosine kinase receptor (Homo sapiens) (UniProt P29376). The conditions noted are these: Compound concentration 1000.0 nM.
Experiment [6] has as its target Mitogen-activated protein kinase 10 (Homo sapiens) (UniProt P53779). The following applies: Compound concentration 1000.0 nM.
Experiment [7] concerns the target Cyclin-dependent kinase-like 4 (Homo sapiens) (UniProt Q5MAI5). The conditions noted are these: Compound concentration 1.0 uM.
The target of experiment [8] is ATR/ATRIP (Homo sapiens) (UniProt Q13535+Q8WXE1). The conditions noted are these: Compound concentration 1.0 uM.
For experiment [9], the target named is T3, Serine/threonine-protein kinase MAK (Homo sapiens) (UniProt P20794).
T3 sequence (whole entry): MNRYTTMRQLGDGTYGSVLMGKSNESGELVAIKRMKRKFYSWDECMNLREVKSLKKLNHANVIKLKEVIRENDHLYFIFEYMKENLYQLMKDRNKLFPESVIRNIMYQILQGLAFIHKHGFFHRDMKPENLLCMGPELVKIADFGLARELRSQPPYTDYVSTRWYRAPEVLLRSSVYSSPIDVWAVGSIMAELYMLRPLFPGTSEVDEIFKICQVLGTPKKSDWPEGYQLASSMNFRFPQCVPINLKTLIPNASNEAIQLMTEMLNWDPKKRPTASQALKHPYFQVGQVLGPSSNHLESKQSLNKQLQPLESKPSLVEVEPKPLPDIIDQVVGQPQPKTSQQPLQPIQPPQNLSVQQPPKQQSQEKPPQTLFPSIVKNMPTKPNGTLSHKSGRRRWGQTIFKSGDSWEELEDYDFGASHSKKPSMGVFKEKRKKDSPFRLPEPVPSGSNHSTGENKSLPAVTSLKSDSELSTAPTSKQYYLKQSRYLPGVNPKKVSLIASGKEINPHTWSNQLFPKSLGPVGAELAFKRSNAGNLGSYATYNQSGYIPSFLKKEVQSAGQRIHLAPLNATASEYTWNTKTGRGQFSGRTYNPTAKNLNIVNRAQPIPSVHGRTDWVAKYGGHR
The conditions noted are these: Compound concentration 1.0 uM.

Experiment [10] has as its target Dual specificity protein kinase CLK1 (Homo sapiens) (UniProt P49759). The following applies: Compound concentration 1.0 uM.
The target of experiment [11] is Aurora kinase B (Homo sapiens) (UniProt Q96GD4). The following applies: Compound concentration 1.0 uM.
Chain of Aurora kinase B (Homo sapiens) (Q96GD4 whole entry): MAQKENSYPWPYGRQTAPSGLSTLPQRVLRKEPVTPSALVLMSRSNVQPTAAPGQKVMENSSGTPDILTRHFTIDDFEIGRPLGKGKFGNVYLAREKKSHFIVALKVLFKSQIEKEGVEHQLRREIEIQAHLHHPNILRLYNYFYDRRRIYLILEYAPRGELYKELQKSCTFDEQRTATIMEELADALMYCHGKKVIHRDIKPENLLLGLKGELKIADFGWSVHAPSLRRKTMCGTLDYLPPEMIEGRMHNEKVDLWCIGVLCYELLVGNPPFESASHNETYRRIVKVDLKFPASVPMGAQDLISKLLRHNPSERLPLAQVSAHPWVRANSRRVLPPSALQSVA

Molecules are shown by their SMILES.

Chain of Leukocyte tyrosine kinase receptor (Homo sapiens) (P29376 whole entry): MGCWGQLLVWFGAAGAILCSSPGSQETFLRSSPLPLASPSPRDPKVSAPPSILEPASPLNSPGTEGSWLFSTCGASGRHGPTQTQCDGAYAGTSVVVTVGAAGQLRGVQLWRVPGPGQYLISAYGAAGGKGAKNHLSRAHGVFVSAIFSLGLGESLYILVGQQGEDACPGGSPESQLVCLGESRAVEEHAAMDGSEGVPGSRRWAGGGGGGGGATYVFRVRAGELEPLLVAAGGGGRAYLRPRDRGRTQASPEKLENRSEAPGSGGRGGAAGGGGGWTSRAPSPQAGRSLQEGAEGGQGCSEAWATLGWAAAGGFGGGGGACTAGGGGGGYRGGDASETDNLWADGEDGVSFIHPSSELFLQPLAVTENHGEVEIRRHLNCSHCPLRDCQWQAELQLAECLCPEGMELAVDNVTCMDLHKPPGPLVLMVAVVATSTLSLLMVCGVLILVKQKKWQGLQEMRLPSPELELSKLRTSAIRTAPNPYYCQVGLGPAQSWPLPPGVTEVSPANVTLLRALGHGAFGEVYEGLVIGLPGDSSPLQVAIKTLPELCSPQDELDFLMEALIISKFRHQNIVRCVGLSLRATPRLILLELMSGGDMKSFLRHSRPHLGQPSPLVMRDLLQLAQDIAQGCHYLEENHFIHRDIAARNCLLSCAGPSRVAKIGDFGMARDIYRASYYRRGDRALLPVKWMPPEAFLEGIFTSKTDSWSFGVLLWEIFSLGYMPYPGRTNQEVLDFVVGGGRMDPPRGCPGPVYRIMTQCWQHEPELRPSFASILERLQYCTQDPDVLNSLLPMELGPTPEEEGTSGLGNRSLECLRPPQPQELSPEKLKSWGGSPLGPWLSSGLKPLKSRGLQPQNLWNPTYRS
Chain of Mitogen-activated protein kinase 10 (Homo sapiens) (P53779 whole entry): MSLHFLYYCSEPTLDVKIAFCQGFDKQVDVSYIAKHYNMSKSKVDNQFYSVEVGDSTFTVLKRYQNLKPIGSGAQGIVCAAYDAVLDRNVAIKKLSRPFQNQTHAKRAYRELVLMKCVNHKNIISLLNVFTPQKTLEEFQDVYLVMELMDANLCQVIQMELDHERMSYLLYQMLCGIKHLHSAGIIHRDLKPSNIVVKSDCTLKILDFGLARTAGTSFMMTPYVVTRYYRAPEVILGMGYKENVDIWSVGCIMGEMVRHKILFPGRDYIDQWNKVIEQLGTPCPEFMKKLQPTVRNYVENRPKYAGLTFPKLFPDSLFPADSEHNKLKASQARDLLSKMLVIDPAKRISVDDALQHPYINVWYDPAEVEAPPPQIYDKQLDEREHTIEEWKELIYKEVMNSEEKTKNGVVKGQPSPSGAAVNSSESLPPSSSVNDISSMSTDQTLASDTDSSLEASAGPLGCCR
Chain of BDNF/NT-3 growth factors receptor (Homo sapiens) (Q16620 32-822 limits assumed): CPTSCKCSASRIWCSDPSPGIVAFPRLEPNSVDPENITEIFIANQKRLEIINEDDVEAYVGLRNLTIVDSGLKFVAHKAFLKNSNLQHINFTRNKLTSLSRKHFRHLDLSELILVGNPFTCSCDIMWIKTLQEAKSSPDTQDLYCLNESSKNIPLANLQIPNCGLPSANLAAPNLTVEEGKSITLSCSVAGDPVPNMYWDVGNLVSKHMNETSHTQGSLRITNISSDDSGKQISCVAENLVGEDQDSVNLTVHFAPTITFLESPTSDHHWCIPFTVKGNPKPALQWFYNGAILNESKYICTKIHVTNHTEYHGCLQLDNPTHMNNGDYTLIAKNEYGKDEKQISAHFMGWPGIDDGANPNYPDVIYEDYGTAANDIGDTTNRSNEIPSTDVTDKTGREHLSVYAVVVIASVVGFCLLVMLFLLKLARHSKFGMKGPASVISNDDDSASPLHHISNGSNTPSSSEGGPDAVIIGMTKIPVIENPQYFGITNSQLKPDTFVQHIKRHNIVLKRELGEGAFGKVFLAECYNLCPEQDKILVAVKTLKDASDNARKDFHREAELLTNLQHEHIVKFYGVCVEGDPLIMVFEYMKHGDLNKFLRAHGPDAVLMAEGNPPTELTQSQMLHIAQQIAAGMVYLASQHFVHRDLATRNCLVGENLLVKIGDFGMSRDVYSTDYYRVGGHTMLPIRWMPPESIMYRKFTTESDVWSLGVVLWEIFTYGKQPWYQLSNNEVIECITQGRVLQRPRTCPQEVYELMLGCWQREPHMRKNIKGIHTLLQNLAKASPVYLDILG
Chain of Cyclin-dependent kinase-like 4 (Homo sapiens) (Q5MAI5 whole entry): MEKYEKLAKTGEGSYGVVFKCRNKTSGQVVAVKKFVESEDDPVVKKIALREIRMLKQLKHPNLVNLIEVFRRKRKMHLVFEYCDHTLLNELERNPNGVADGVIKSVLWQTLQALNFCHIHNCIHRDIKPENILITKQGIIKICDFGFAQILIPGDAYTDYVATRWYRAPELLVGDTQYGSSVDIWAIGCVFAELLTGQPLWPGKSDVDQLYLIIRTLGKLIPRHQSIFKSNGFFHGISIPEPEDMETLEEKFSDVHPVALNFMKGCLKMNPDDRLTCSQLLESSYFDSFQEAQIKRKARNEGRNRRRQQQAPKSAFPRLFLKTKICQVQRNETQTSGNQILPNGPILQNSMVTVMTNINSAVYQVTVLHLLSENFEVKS
Chain of Dual specificity protein kinase CLK1 (Homo sapiens) (P49759 whole entry, looked up): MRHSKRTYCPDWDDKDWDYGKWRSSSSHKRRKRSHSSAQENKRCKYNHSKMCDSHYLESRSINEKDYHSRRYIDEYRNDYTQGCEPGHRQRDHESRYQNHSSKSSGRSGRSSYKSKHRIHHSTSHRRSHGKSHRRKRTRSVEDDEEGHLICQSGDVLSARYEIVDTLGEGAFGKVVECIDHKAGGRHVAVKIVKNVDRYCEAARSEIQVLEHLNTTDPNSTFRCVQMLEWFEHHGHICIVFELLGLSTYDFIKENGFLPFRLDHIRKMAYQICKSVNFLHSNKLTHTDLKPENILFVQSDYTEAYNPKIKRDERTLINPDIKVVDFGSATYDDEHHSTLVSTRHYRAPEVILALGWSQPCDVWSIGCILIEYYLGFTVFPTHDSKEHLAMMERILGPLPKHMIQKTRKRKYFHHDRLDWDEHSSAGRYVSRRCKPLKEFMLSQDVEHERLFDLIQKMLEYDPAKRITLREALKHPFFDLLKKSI

On to `Cc1nc(C2CCN(C(=O)c3ccc(OC(F)(F)F)cc3N)CC2)c2ncc(N3CCN(C)CC3)cc2n1` [BAY-693], for which the residual activity is 100% in [1]; 100% in experiment [2]; 93% in experiment [3]; 93% in experiment [4]; 86% in experiment [5]; 100% in experiment [6].
For the compound `CN1CCN(c2cnc3c(C4CCN(C(=O)c5ccc(OC(F)(F)F)cc5N)CC4)ncnc3c2)CC1` [BAY-885], the residual activity in [1] was 100%; in experiment [2] it was 100%; in experiment [3] it was 89%; in experiment [4], 69%; in [5] it was 49%; in experiment [6] it was 100%. Further, the % residual kinase activity in experiment [7] is 103%; in experiment [8], 100%; in experiment [9], 125%; in experiment [10] it was 105%; in experiment [11], 94%.
